Data as given in patent US20230348426A1, “OXOPYRROLIDINE FPR2 AGONISTS” (Bristol-Myers Squibb Company, priority 2020, published 2023).

Legend:
human FPR2 = human FPR2 (Homo sapiens (Human), UniProt P25090); experiment: FPR2 cyclic adenosine monophosphate (cAMP) assay; type: cell-based; settings: CHO cells overexpressing human FPR2; forskolin 5 µM; inhibition of cAMP production; read-out: hFPR2 cAMP2 EC50
Summary of the method: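 Inhibition of forskolin-driven (5 µM) cAMP, with 200 µM IBMX, measured in human FPR2-expressing CHO cells, 2,000 per well, 30 min at room temperature; compounds tested 0.020 nM to 100 µM in 1% DMSO. HTRF 665/590 ratio converted to cAMP via calibration curve, then 4-parameter fit.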

human FPR1 = human FPR1 (Homo sapiens (Human), UniProt P21462); experiment: FPR1 cyclic adenosine monophosphate (cAMP) assay; type: cell-based; settings: CHO cells overexpressing human FPR1; forskolin 10 µM; inhibition of cAMP production; read-out: hFPR1 cAMP EC50
Summary of the method: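 Human FPR1-expressing CHO cells were used at 4,000 per well, with compound at 0.020 nM–100 µM in 1% DMSO. Potency came from a 4-parameter logistic fit.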

Sequence of human FPR2 (P25090 whole entry): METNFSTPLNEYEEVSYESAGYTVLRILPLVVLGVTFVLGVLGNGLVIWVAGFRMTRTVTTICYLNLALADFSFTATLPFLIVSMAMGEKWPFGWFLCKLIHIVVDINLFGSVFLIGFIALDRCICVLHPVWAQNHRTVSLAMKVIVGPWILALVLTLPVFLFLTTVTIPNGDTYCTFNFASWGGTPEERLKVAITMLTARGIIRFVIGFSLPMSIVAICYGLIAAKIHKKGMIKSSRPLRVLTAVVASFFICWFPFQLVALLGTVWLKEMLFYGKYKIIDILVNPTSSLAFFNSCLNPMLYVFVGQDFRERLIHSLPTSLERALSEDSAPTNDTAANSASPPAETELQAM
Sequence of human FPR1 (P21462 whole entry): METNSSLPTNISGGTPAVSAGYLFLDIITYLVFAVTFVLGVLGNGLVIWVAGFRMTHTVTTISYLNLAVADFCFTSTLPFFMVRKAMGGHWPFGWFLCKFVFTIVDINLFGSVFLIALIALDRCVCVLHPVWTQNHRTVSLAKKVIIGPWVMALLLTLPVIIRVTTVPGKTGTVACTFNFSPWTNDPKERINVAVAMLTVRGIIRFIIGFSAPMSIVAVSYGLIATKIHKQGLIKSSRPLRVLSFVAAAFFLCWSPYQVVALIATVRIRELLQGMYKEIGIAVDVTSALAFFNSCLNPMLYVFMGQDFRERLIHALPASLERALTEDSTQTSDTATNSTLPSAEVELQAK

| EC50 (human FPR2) | EC50 (human FPR1) | SMILES |
| --- | --- | --- |
| 2.8 nM | 440 nM | COc1cc(F)c([C@H]2[C@H](NC(=O)c3ccc(OC(F)F)cc3)C(=O)N(c3cccc(N4CC[C@H](O)C4)n3)[C@H]2C)c(F)c1 [Example 568] |
| 1.2 nM | 1600 nM | COc1cc(F)c([C@@H]2CN(c3ccc(F)c(N4C[C@@H]5C[C@H]4CN5C)n3)C(=O)[C@H]2NC(=O)c2ccc(OC(F)F)cc2)c(F)c1 [Example 569] |
| 1.2 nM | 1500 nM | COc1cc(F)c([C@@H]2CN(c3cc(C)cc(N4C[C@@H]5C[C@H]4CN5C)n3)C(=O)[C@H]2NC(=O)c2ccc(OC(F)F)cc2)c(F)c1 [Example 570] |
| 6 nM | 580 nM | COc1cc(F)c([C@@H]2CN(c3cc(C)cc(N4C[C@@H]5C[C@H]4CN5C)n3)C(=O)[C@H]2NC(=O)c2ccc(OC(F)(F)F)cc2)c(F)c1 [Example 571] |
| 3.5 nM | 1600 nM | COc1cc(F)c([C@@H]2CN(c3ccc(F)c(N4C[C@@H]5C[C@H]4CN5C)n3)C(=O)[C@H]2NC(=O)c2ccc(OC(F)(F)F)cc2)c(F)c1 [Example 572] |
| 15 nM | 550 nM | COc1cc(F)c([C@H]2[C@H](NC(=O)c3ccc(OC(F)F)cc3)C(=O)N(c3cccc(N4CCOCC4)n3)[C@H]2C)c(F)c1 [Example 574] |
| 480 nM | > 5000 nM | COc1cc(C2CC2)nc(N2C(=O)[C@@H](NC(=O)c3ccc(OC(F)(F)F)cc3)[C@H](c3c(F)cc(OC)cc3F)[C@@H]2C)c1 [Example 575] |
| 1.4 nM | 1.5 nM | COc1cc(F)c([C@@H]2CN(c3c(C)ccn(CCS(C)(=O)=O)c3=O)C(=O)[C@H]2NC(=O)c2ccc(OC(F)(F)F)cc2)c(F)c1 [Example 576] |
| 0.6 nM | 0.2 nM | COc1ccc([C@@H]2CN(c3c(C)ccn(C4CCC4)c3=O)C(=O)[C@H]2NC(=O)c2ccc(OC(F)F)cc2)cc1 [Example 577] |
| 1.5 nM | 6 nM | COc1ccc([C@@H]2CN(c3c(C)ccn(C4COC4)c3=O)C(=O)[C@H]2NC(=O)c2ccc(OC(F)(F)F)cc2)cc1 [Example 578] |
| 5.8 nM | 5.5 nM | COc1cc(F)c([C@@H]2CN(c3c(C)ccn(Cc4cc(C)no4)c3=O)C(=O)[C@H]2NC(=O)c2ccc(OC(F)F)cc2)c(F)c1 [Example 579] |
| 3.6 nM | 740 nM | COc1cc(F)c([C@@H]2CN(c3cccc(N4CCOCC4)n3)C(=O)[C@H]2NC(=O)c2ccc(OC(F)F)cc2)c(F)c1 [Example 580] |
| 1.3 nM | 10 nM | COc1cc(F)c([C@@H]2CN(c3c(C)ccn(CC(C)O)c3=O)C(=O)[C@H]2NC(=O)c2ccc(Cl)cc2)c(F)c1 (stereo partly drawn) [Example 581] |
| 4.7 nM | 550 nM | COc1cc(F)c([C@@H]2CN(c3cccn(C(CO)C(F)(F)F)c3=O)C(=O)[C@H]2NC(=O)c2ccc(OC(F)F)cc2)c(F)c1 (stereo partly drawn) [Example 582] |
| 3.8 nM | 57 nM | COc1cc(F)c([C@@H]2CN(c3cccn(C(CO)C(F)(F)F)c3=O)C(=O)[C@H]2NC(=O)c2ccc(OC(F)F)cc2)c(F)c1 (stereo partly drawn) [Example 583] |
| 21.8 nM | 660 nM | COc1cc(N2C[C@@H](c3c(F)cc(OC)cc3F)[C@H](NC(=O)c3ccc(OC(F)(F)F)cc3)C2=O)nc(C(C)(C)O)c1 [Example 584] |
| 21.8 nM | 1200 nM | COc1cc(N2C[C@@H](c3c(F)cc(OC)cc3F)[C@H](NC(=O)c3ccc(OC(F)F)cc3)C2=O)nc(C(C)(C)O)c1 [Example 585] |
| 9.8 nM | 1300 nM | COc1cc(CO)nc(N2C[C@@H](c3c(F)cc(OC)cc3F)[C@H](NC(=O)c3ccc(OC(F)F)cc3)C2=O)c1 [Example 586] |
| 1.1 nM | 600 nM | COc1cc(CO)nc(N2C[C@@H](c3c(F)cc(OC)cc3F)[C@H](NC(=O)c3ccc(OC(F)(F)F)cc3)C2=O)c1 [Example 587] |
| 6.9 nM | 410 nM | COc1cc(C)nc(N2C[C@@H](c3c(F)cc(OC)cc3F)[C@H](NC(=O)c3ccc(OC(F)F)cc3)C2=O)c1 [Example 588] |
| 130 nM | 2600 nM | COc1cc(C2CC2)nc(N2C[C@@H](c3c(F)cc(OC)cc3F)[C@H](NC(=O)c3ccc(OC(F)F)cc3)C2=O)c1 [Example 589] |
| 1.9 nM | 1600 nM | COc1cc(F)c([C@@H]2CN(c3nc(C4CCN(CCO)CC4)ccc3F)C(=O)[C@H]2NC(=O)c2ccc(OC(F)F)cc2)c(F)c1 [Example 590] |
| 10.5 nM | 8.5 nM | COc1cc(F)c([C@@H]2CN(c3c(C)c4c(n(CCO)c3=O)CCC4)C(=O)[C@H]2NC(=O)c2ccc(OC(F)F)cc2)c(F)c1 [Example 591] |
| 7.1 nM | 6.2 nM | COc1cc(F)c([C@@H]2CN(c3c(C)c4c(n(CCO)c3=O)CCC4)C(=O)[C@H]2NC(=O)c2ccc(OC(F)(F)F)cc2)c(F)c1 [Example 592] |

| EC50 (human FPR2) | EC50 (human FPR1) | SMILES |
| --- | --- | --- |
| 3.3 nM | 40 nM | COc1cc(F)c([C@@H]2CN(c3c(C)c4c(n(CCO)c3=O)CCC4)C(=O)[C@H]2NC(=O)c2ccc(Cl)cc2)c(F)c1 [Example 593] |
| 2.4 nM | 1.4 nM | COc1ccc([C@@H]2CN(c3c(C)ccn(CCC(F)(F)F)c3=O)C(=O)[C@H]2NC(=O)c2ccc(Cl)cc2)cc1 [Example 594] |
| 2.4 nM | 13 nM | COc1cc(F)c([C@@H]2CN(c3c(C)ccn(CC#N)c3=O)C(=O)[C@H]2NC(=O)c2ccc(OC(F)(F)F)cc2)c(F)c1 [Example 595] |
| 43.7 nM | 860 nM | COc1cc(F)c([C@@H]2CN(c3cnn4c3OCCC4)C(=O)[C@H]2NC(=O)c2ccc(Cl)cc2)c(F)c1 [Example 596] |
| 1.5 nM | 210 nM | COc1cc(F)c([C@@H]2CN(c3cnn4c3OCCC4)C(=O)[C@H]2NC(=O)c2ccc(OC(F)F)cc2)c(F)c1 [Example 597] |
| 6.2 nM | 590 nM | COc1cc(F)c([C@@H]2CN(c3cnn4c3OCCC4)C(=O)[C@H]2NC(=O)c2ccc(OC(F)(F)F)cc2)c(F)c1 [Example 598] |
| 4.1 nM | 40 nM | COc1cc(F)c([C@@H]2CN(c3cccn4c(C)nnc34)C(=O)[C@H]2NC(=O)c2ccc(OC(F)F)cc2)c(F)c1 [Example 599] |
| 7.8 nM | 170 nM | COc1cc(F)c([C@@H]2CN(c3c(C)ccn(C(F)(F)C(=O)N4CCOCC4)c3=O)C(=O)[C@H]2NC(=O)c2ccc(OC(F)F)cc2)c(F)c1 [Example 600] |
| 2 nM | 170 nM | COc1cc(F)c([C@@H]2CN(c3c(C)ccn(C4CCNC4)c3=O)C(=O)[C@H]2NC(=O)c2ccc(OC(F)F)cc2)c(F)c1 (stereo partly drawn) [Example 601] |
| 3.8 nM | 88 nM | COc1cc(F)c([C@@H]2CN(c3c(C)ccn(C4CCNC4)c3=O)C(=O)[C@H]2NC(=O)c2ccc(OC(F)(F)F)cc2)c(F)c1 (stereo partly drawn) [Example 602] |
| 3.9 nM | 56 nM | COc1cc(F)c([C@@H]2CN(c3cccn4c(C)nnc34)C(=O)[C@H]2NC(=O)c2ccc(Cl)cc2)c(F)c1 [Example 603] |
| 0.5 nM | 15 nM | COc1cc(F)c([C@@H]2CN(c3cccn4c(C)nnc34)C(=O)[C@H]2NC(=O)c2ccc(OC(F)(F)F)cc2)c(F)c1 [Example 604] |
| < 5 nM | 1.9 nM | COc1cc(F)c([C@@H]2CN(c3c(C)c4c(n(CCO)c3=O)CCCC4)C(=O)[C@H]2NC(=O)c2ccc(OC(F)F)cc2)c(F)c1 [Example 605] |
| 20 nM | 53 nM | COc1cc(F)c([C@@H]2CN(c3c(C)c4c(n(CCO)c3=O)CCCC4)C(=O)[C@H]2NC(=O)c2ccc(OC(F)(F)F)cc2)c(F)c1 [Example 606] |
| 13.3 nM | 30 nM | COc1cc(F)c([C@@H]2CN(c3c(C)c4c(n(CCO)c3=O)CCCC4)C(=O)[C@H]2NC(=O)c2ccc(Cl)cc2)c(F)c1 [Example 607] |
| 4.1 nM | 4.2 nM | O=C(N[C@@H]1C(=O)N(c2cccn(CC(O)C(F)(F)F)c2=O)C[C@H]1c1ccc(Cl)cc1)c1ccc(OC(F)(F)F)cc1 (stereo partly drawn) [Example 608] |
| 1.8 nM | 28 nM | O=C(N[C@@H]1C(=O)N(c2cccn(CC(O)C(F)(F)F)c2=O)C[C@H]1c1ccc(Cl)cc1)c1ccc(OC(F)(F)F)cc1 (stereo partly drawn) [Example 609] |
| 1 nM | 0.3 nM | COc1ccc([C@@H]2CN(c3c(C)ccn(CC4CC4)c3=O)C(=O)[C@H]2NC(=O)c2ccc(OC(F)F)cc2)cc1 [Example 610] |
| 2.4 nM | 5.9 nM | COc1cc(F)c([C@@H]2CN(c3c(C)ccn(CCC(F)(F)F)c3=O)C(=O)[C@H]2NC(=O)c2ccc(Cl)cc2)c(F)c1 [Example 611] |
| 13.5 nM | 33 nM | COc1cc(F)c([C@@H]2CN(c3c(C)ccn(C4CCNC4)c3=O)C(=O)[C@H]2NC(=O)c2ccc(OC(F)F)cc2)c(F)c1 (stereo partly drawn) [Example 612] |
| 11.8 nM | 9.3 nM | COc1cc(F)c([C@@H]2CN(c3c(C)ccn(C4CCNC4)c3=O)C(=O)[C@H]2NC(=O)c2ccc(OC(F)(F)F)cc2)c(F)c1 (stereo partly drawn) [Example 613] |
| 6 nM | 33 nM | COc1cc(F)c([C@@H]2CN(c3c(C)ccn(CC4CCO4)c3=O)C(=O)[C@H]2NC(=O)c2ccc(Cl)cc2)c(F)c1 (stereo partly drawn) [Example 614] |
| 8.7 nM | 5.3 nM | COc1cc(F)c([C@@H]2CN(c3c(C)ccn(CC4CCO4)c3=O)C(=O)[C@H]2NC(=O)c2ccc(OC(F)(F)F)cc2)c(F)c1 (stereo partly drawn) [Example 615] |
| 9.4 nM | 20 nM | COc1cc(F)c([C@@H]2CN(c3c(C)ccn(CC4CCO4)c3=O)C(=O)[C@H]2NC(=O)c2ccc(OC(F)F)cc2)c(F)c1 (stereo partly drawn) [Example 616] |
